These results are taken from patent US7291461B2, “Methods for identifying small molecules that modulate premature translation termination and nonsense mRNA decay” (PTC Therapeutics, Inc., priority 2002, dated 2007).

Entries after “also recorded” stand apart in the source; their conditions may differ.

Assay [1] relates to luciferase reporter construct containing a UGA premature termination codon in 293T Human Embryonic Kidney cells. Briefly: cell-based luciferase reporter assay, stable cell line. The source says: (§1) Two assays were developed for use in high throughput screens to identify small molecules that promote nonsense suppression. Each assay utilized luciferase because it is a functional reporter gene assay (light is only produced if the protein is functional) and it is extremely sensitive (Light intensity is proportional to luciferase concentration in the nM range). The first assay was a cell-based luciferase reporter assay and the second was a biochemical assay consisting of rabbit reticulocyte lysate and a nonsense-containing luciferase reporter mRNA. In the cell-based assay, a luciferase reporter construct containing a UGA premature termination codon was stably transfected in 293T Human Embryonic Kidney cells. In the biochemical assay, mRNA containing a UGA premature termination codon was used as a reporter in an in vitro translation reaction using rabbit reticulocyte lysate supplemented with tRNA, hemin, creatine kinase, amino acids, KOAc, Mg(OAc)2, and creatine phosphate. […] Synthetic mRNA was prepared in vitro using the T7 promoter and the MegaScript in vitro transcription kit (Ambion).
Compound A and Compound B increase the level of nonsense suppression in the biochemical assay three to four fold over untreated extracts. […]
Background: In a reporter assay the amount or activity of a reporter protein is the signal.

Assay [2] deals with dystrophin. The assay can be described thus: dystrophin immunofluorescence of tibialis anterior muscle of mdx mice treated by Alzet osmotic pumps. In kind it is in vivo, mouse. The note with it: tissue exposure approximately 200 μM, osmotic pump. The procedure: FIG. 10A-10F. Immunohistochemistry of muscle cross-sections to view dystrophin. […] Muscle from untreated mdx mice (panel E) or from cross sections not treated with primary antibody (panel F) show only minimal staining.
As previously described (Barton-Davis et al., 1999, J Clin Invest. 104(4):375-381), compound was delivered by Alzet osmotic pumps implanted under the skin of anesthetized mice. Two doses of Compound A were administered. Gentamicin served as a positive control and pumps filled with solvent only served as the negative control. Pumps were loaded with appropriate compound such that the calculated doses to which tissue was exposed were 10 μM and 20 μM. The gentamicin concentration was calculated to achieve tissue exposure of approximately 200 μM. In the initial experiment, mice were treated for 14 days, after which animals were anesthetized with ketamine and exsanguinated. The tibialis anterior (TA) muscle of the experimental animals was then excised, frozen, and used for immunofluorescence analysis of dystrophin incorporation into striated muscle. The presence of dystrophin in TA muscles was detected by immunostaining, as described previously (Barton-Davis et al., 1999, J Clin Invest. 104(4):375-381; see mdx primary cells in Section 7.8 supra).

For assay [3], the system named is dystrophin. The assay can be described thus: dystrophin immunostaining in mdx mouse primary skeletal muscle cultures. In kind it is cell-based. The note with it: 200 μM. As to the method: FIG. 9. Immunohistochemistry of myotubes from primary cell culture from mdx muscle. The presence of dystrophin was detected by mAb to the COOH-terminus of dystrophin ([…]) followed by a rhodamine-conjugated anti-mouse IgG. […] Little dystrophin was detected in untreated mdx myotubes (right).
Mouse primary skeletal muscle cultures derived from 1-day old mdx mice were prepared as described previously (Barton-Davis et al., 1999, J Clin Invest. 104(4):375-381). Cells were cultured for 10 days in the presence of Compound A (20 μM). Culture medium was replaced every four days and the presence of dystrophin in myoblast cultures was detected by immunostaining as described previously (Barton-Davis et al., 1999, J Clin Invest. 104(4):375-381). A primary monoclonal antibody to the C-terminus of the dystrophin protein (F19A12) was used undiluted and rhodamine conjugated anti-mouse IgG was used as the secondary antibody. The F19A12 antibody will detect the full-length protein produced by suppression of the nonsense codon. Staining was viewed using a Leica DMR micropscope, digital camera, and associated imaging software at the University of Pennsylvania.

Assay [4] has as its system UGA, UAA or UAG nonsense alleles of luciferase. The assay can be described thus: nonsense suppression in cells transiently transfected with luciferase nonsense alleles in each codon context. In kind it is cell-based. The note with it: 3 mg/ml, overnight. The procedure: Cells were transiently transfected with plasmids harboring the UGA, UAA or UAG nonsense alleles of luciferase in each codon context (UGAA, UGAC, UGAG, UGAU, UAGA, UAGC, UAGG, UAGU, UAAA, UAAC, UAAG, and UAAU) then the cells were treated overnight with Compound A, and gentamicin. The following day, the level of suppression was determined by measuring the amount of luminescence produced. The fold suppression above control cells treated with solvent was calculated and is numerically reported.

The subject of assay [5] is luciferase RNA containing a UGA premature termination codon. The assay can be described thus: in vitro translation nonsense suppression assay in HeLa cell extract. In kind it is biochemical, human. The note with it: FIG. 4. The procedure:
This Example describes a method of preparing a cell extract to perform in vitro translation reactions to monitor nonsense suppression or to produce proteins in vitro. This method is different from other methods used to prepare translation extracts for several reasons.
HeLa S3 cells were grown to a density of 10^6 cells/ml in DMEM; 5% CO2, 10% FBS, 1×P/S in a spinner flask. Cells were harvested by spinning at 1000×g. Cells were washed twice with phosphate buffered saline. The cell pellet sat on ice for 12 to 24 hours before proceeding. By letting the cells sit on ice, the activity of the extract is increased two-fold. The length of time on ice can range from 0 hours to 1 week. The cells were resuspended in 1.5 volumes (packed cell volume) of hypotonic buffer (10 mM HEPES (KOH) pH 7.4; 15 mM KCl; 1.5 mM Mg(OAc)2; 0.5 mM Pefabloc (Roche); 2 mM DTT). Cells were allowed to swell for 5 minutes on ice and dounce homogenized with 10 to 100 strokes using a tight-fitting pestle. The cells were spun for 10 minutes at 12000×g at 4° C. in a Sorvall SS-34 rotor. […]
Further, in the presence of the aminoglycoside gentamicin, nonsense suppression activity (as measured by the amount of luciferase activity produced from a luciferase RNA containing a UGA premature termination codon) is increased 2 to 3 fold above untreated extracts (see FIG. 4). […]

The subject of assay [6] is mRNA containing a UGA premature termination codon. Briefly: biochemical assay: rabbit reticulocyte lysate and nonsense-containing luciferase reporter mRNA.
Excerpt: as §1

As for gentamicin, the “luciferase activity on addition of compound” value in assay [1] and in assay [6] was “increased luciferase activity” throughout. Moreover, the “dystrophin in TA muscle (immunostaining)” value with dystrophin [2] is “positive staining for dystrophin”. Moreover, the “presence of full-length dystrophin in myotubes (immunostaining, C-terminus antibody)” value in the assay with dystrophin [3] is “full-length dystrophin protein is produced and localized to the muscle myotubes; also recorded: Dystrophin was present”. In addition, the “fold suppression above control cells treated with solvent” value in assay [4] (context UAAA) was 0.71 fold; in assay [4] (context UAAC), 2.32 fold; in assay [4] (context UAAG), 0.01 fold; in assay [4] (context UAAU), 0.92 fold; in assay [4] (context UAGA), 1.31 fold; in assay [4] (context UAGC), 2.16 fold. The “fold suppression above control cells treated with solvent” value in assay [4] (context UAGG) came to 0.64 fold; in assay [4] (context UAGU), 0.54 fold; in assay [4] (context UGAA) it was 0.76 fold; in assay [4] (context UGAC), 1.91 fold; in assay [4] (context UGAG) it was 0.45 fold; in assay [4] (context UGAU), 6.74 fold. The “nonsense suppression activity (luciferase activity from luciferase RNA containing a UGA premature termination codon) above untreated extracts” value in assay [5] is 2 to 3 fold.
